Values quoted from earlier work, collected in patent US6686348B2, “Metalloprotease inhibitors” (Les Laboratoires Servier, priority 2000, dated 2004).

Tested on: ovarian cancers
Settings: Becket et al., DDT 1996

## CNC(=O)[C@H](Cc1ccccc1)NC(=O)[C@H](CC(C)C)[C@H](CSc1cccs1)C(=O)NO [BB94]
  anti-tumour activity in clinical use: active against ovarian cancers
